# Source: patent publication US10865238B1, “Complement factor H antibodies” (Duke University, priority 2017, dated 2020)
# How the values were obtained:
# A549 cells = assay: Calreticulin translocation to plasma membrane, A549; assay type: cell-based, human; details: A549, NHS, compared to negative controls
# Method: (§1) H460 or A549 cells were treated for 2.5 hr with 1, medium; 2, NHS and CFH mAb (200 μg/ml); 3, NHS and IgG (200 μg/ml); or 4, NHS and Doxorubicin (25 μM).
# (§2) In order to see if lung tumor cells undergoing CFH mAb-induced CDC send an ICD signal, human lung tumor cell lines (H460 and A549) were incubated in medium containing complement from the addition of NHS, and treated with CFH mAb, control antibody, or the known ICD inducer doxorubicin (Kepp et al. Oncoimmunology 2014; 3:e955691; Krysko et al. Nat Rev Cancer 2012; 12:860-75.). […] Total calreticulin in whole cell lysates was the same under all conditions.
# H460 cells = assay: Calreticulin translocation to plasma membrane, H460; assay type: cell-based, human; details: H460, NHS, compared to negative controls
# Method: as §1, §2
# [1] = molecular target: T1, reduced Complement Factor H (CFH) (human, UniProt P08603 19-1231, disulfide bonds reduced with TCEP); assay: western blot (immunoblot) on native and TCEP-reduced CFH
# T1 construct: also called reduced CFH; CFH treated with TCEP
# T1 sequence (P08603 19-1231 limits assumed): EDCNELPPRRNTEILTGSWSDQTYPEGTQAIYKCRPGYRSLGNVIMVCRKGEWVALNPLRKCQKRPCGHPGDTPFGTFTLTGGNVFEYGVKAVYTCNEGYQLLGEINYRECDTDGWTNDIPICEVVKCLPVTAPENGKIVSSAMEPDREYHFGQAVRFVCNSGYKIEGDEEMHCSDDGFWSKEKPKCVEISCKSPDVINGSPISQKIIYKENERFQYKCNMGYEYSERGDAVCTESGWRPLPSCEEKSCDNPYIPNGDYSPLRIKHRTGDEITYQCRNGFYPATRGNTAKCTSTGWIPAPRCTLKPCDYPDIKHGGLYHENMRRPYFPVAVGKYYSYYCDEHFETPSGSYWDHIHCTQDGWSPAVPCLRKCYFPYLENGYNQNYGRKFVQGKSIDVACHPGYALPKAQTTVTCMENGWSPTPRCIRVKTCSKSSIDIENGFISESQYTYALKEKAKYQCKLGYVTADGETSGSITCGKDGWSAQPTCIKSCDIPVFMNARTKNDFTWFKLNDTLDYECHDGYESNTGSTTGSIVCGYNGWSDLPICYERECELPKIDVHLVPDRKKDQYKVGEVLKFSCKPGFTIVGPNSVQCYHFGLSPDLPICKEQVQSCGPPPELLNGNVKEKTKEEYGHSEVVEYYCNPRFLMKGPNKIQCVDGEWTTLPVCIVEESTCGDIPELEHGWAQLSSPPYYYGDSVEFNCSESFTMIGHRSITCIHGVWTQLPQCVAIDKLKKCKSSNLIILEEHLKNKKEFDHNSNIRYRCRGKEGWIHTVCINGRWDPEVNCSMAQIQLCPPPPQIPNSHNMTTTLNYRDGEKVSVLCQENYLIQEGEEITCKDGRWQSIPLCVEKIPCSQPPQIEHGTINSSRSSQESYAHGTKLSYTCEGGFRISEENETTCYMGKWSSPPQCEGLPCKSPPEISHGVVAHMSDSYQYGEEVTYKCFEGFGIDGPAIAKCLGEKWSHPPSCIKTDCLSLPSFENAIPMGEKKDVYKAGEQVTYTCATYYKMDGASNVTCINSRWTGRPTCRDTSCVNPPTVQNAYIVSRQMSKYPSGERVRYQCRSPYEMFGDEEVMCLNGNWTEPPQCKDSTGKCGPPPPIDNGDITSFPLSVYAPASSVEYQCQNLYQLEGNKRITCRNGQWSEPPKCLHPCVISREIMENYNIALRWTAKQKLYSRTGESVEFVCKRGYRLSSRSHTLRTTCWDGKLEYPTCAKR
# Method: Equimolar amounts of CFH and SCR19-20 proteins (~150 kDa and ~15 kDa, respectively) were treated with Tris-HCl (oxidized) or TCEP (reduced) prior to electrophoresis. The proteins were transferred to PVDF, and the membranes were placed into a "Surf-Blot" apparatus for immunoblot analysis. […] Binding was visualized with an antihuman IgG-HRP conjugate and chemiluminescent substrate, exposing the entire blot to one piece of film.
binding result [1],Molecule,plasma membrane calreticulin (A549 cells),plasma membrane calreticulin (H460 cells)
,"COc1cccc2c1C(=O)c1c(O)c3c(c(O)c1C2=O)C[C@@](O)(C(=O)CO)C[C@@H]3O[C@H]1C[C@H](N)[C@H](O)[C@H](C)O1 [doxorubicin, reference compound]",increases in plasma membrane calreticulin,increases in plasma membrane calreticulin
binds,"Ab7955 (antibody, V domains shown, Recombinant human mAb; also called CFH mAb 7955) VH: LVESGGGVVRPGRSLRLSCVASGFTFNAYGMHWVRQGPGKGLEWLAVISYEGKTVYYADSVKDRFTISRDNSRNTVSLHLNNLRGEDTAVYYCAKGSASAAVLQHWGQGTLVSVTS VL: MTQSPGSLAVSLGSRATINCKSSRSLLYRSNNKNYLAWYQQKPGQSPRLLIYWASSRESGVPDRFSGGGSGTSFTLTISSLQAEDVAVYYCQQYFNPPWTFGQGTKVEIK",,
